The data set relates to GA-primed murine splenocytes.

glatiramer acetate [GA]: the “AVG expression CYP2S1” value turned out to be 6.418.

Values taken from US20140193827A1 (TEVA PHARMACEUTICAL INDUSTRIES, LTD., priority 2013, published 2014).
